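Protocol summary: plate cells (96-well), add compound at 5 concentrations, incubate 48 h, interpolate endpoints linearly. GI50 marks 50% less growth.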 Activity calls are given as the source filed them. Cut-off read from the data, not from the text of the source: active = GI50 up to about 1.1 µM and inactive = higher.
Experiments:
Assay in all cases: NCI anticancer screen, dose series, 48 h
SN12C = tested on: SN12C
OVCAR-8 = tested on: OVCAR-8
IGROV-1 = tested on: IGROV-1
UACC-62 = tested on: UACC-62
HL-60 = tested on: HL-60
HT-29 = tested on: HT-29
UACC-257 = tested on: UACC-257
OVCAR-3 = tested on: OVCAR-3
NCI-H522 = tested on: NCI-H522
UO-31 = tested on: UO-31
U-251 = tested on: U-251
SF-295 = tested on: SF-295
SK-MEL-28 = tested on: SK-MEL-28
SW-620 = tested on: SW-620
SK-MEL-2 = tested on: SK-MEL-2
LXFL 529 = tested on: LXFL 529
LOX IMVI = tested on: LOX IMVI
A498 = tested on: A498
MCF7 = tested on: MCF7
NCI/ADR-RES = tested on: NCI/ADR-RES

Measured: GI50

CC1(C)COC(C2(C)C(=O)C=C(c3ccccc3)c3ccccc32)=N1 (centres undefined)
inactive: SN12C 30.5 µM | OVCAR-8 46.8 µM | IGROV-1 47.5 µM | UACC-62 54.3 µM | HL-60 27 µM | HT-29 30.5 µM | UACC-257 31.4 µM | OVCAR-3 30.4 µM | NCI-H522 35.5 µM | UO-31 28.3 µM | U-251 59.4 µM | SF-295 37.9 µM | SK-MEL-28 42.9 µM | SW-620 81.8 µM | SK-MEL-2 37.3 µM | LXFL 529 41.3 µM

COc1cc(/C=C\c2ccncc2)cc(OC)c1OC
inactive: LOX IMVI 44.2 µM | SN12C > 100 µM | A498 > 100 µM | OVCAR-8 > 100 µM | IGROV-1 > 100 µM | UACC-62 59.2 µM | HL-60 24.1 µM | HT-29 40.6 µM | UACC-257 > 100 µM | OVCAR-3 > 100 µM | NCI-H522 43.3 µM | UO-31 72.3 µM | U-251 > 100 µM | SF-295 54.3 µM | SK-MEL-28 > 100 µM | SW-620 43.2 µM | LXFL 529 67.6 µM

CCO/S(=N/S(=O)(=O)c1ccccc1)c1ccccc1[N+](=O)[O-] (centres undefined)
inactive: LOX IMVI > 100 µM | SN12C > 100 µM | OVCAR-8 > 100 µM | IGROV-1 > 100 µM | UACC-62 > 100 µM | HT-29 > 100 µM | UACC-257 > 100 µM | OVCAR-3 > 100 µM | NCI-H522 > 100 µM | UO-31 > 100 µM | U-251 > 100 µM | SF-295 > 100 µM | SK-MEL-28 > 100 µM | SW-620 > 100 µM | SK-MEL-2 > 100 µM | LXFL 529 > 100 µM

COc1ccc(/C=N/N=C(\N)NO)c(OC)c1
inactive: LOX IMVI 24.7 µM | SN12C 67.8 µM | OVCAR-8 61 µM | IGROV-1 > 100 µM | UACC-62 27.9 µM | UACC-257 80.7 µM | OVCAR-3 37.7 µM | NCI-H522 > 10 µM | UO-31 13.8 µM | U-251 > 100 µM | SF-295 16.1 µM | SK-MEL-28 > 100 µM | SW-620 45.4 µM | SK-MEL-2 52.4 µM | LXFL 529 8.81 µM

NC(=S)NNc1c([N+](=O)[O-])cnn(-c2ccccc2)c1=O
inactive: LOX IMVI 10.3 µM | SN12C 17.1 µM | OVCAR-8 14.5 µM | IGROV-1 19.1 µM | UACC-62 12.1 µM | HL-60 4.62 µM | HT-29 18 µM | UACC-257 22.9 µM | OVCAR-3 17.6 µM | NCI-H522 18.7 µM | UO-31 23.4 µM | U-251 16.9 µM | SF-295 15.1 µM | SK-MEL-28 17 µM | SW-620 13.1 µM | LXFL 529 9.02 µM

Clc1cc2nc[nH]c2cc1Cl
inactive: LOX IMVI > 100 µM | SN12C > 100 µM | A498 15.7 µM | OVCAR-8 > 100 µM | IGROV-1 > 100 µM | UACC-62 76 µM | HL-60 > 100 µM | HT-29 > 100 µM | OVCAR-3 > 100 µM | UO-31 48.2 µM | U-251 > 100 µM | SF-295 > 100 µM | SK-MEL-28 > 100 µM | SW-620 > 100 µM | SK-MEL-2 > 100 µM | LXFL 529 > 100 µM

CC(C)(C)c1cc(C(C)(C)C)c(SC2OC(CO)C(O)C(O)C2O)c(O)c1O (centres undefined)
inactive: LOX IMVI 8.95 µM | SN12C 10.8 µM | A498 14.7 µM | MCF7 5.4 µM | OVCAR-8 7.62 µM | IGROV-1 9.64 µM | UACC-62 2.2 µM | NCI/ADR-RES 10.3 µM | HL-60 3.27 µM | HT-29 7.1 µM | UACC-257 20.9 µM | OVCAR-3 7.66 µM | NCI-H522 7.21 µM | UO-31 11.4 µM | U-251 7.43 µM | SF-295 8.39 µM | SK-MEL-28 15.6 µM | SW-620 19.3 µM | SK-MEL-2 11.1 µM

COc1cc2c(cc1OC)-c1c(cc(OC)c(OC)c1OC)C2=O
inactive: LOX IMVI > 100 µM | SN12C > 100 µM | OVCAR-8 > 100 µM | IGROV-1 > 100 µM | UACC-62 > 100 µM | HL-60 98.6 µM | HT-29 > 100 µM | UACC-257 > 100 µM | OVCAR-3 > 100 µM | NCI-H522 49 µM | UO-31 83.4 µM | U-251 > 100 µM | SF-295 > 100 µM | SK-MEL-28 > 100 µM | SW-620 > 100 µM | LXFL 529 > 100 µM

CC(=O)Oc1ccc2ccc(=O)oc2c1OC(C)=O
inactive: LOX IMVI 21.3 µM | SN12C 19 µM | A498 > 100 µM | MCF7 46.3 µM | OVCAR-8 35.4 µM | IGROV-1 57.1 µM | UACC-62 43.9 µM | NCI/ADR-RES 50.6 µM | HL-60 17.1 µM | HT-29 > 100 µM | UACC-257 > 100 µM | OVCAR-3 29.9 µM | NCI-H522 39.5 µM | UO-31 30.1 µM | U-251 50.2 µM | SF-295 41.5 µM | SK-MEL-28 > 100 µM | SW-620 37.1 µM | SK-MEL-2 > 100 µM

Cc1ccc(OC2CC(n3cnc4ncnc(Cl)c43)OC2Oc2ccc(C)cc2)cc1 (centres undefined)
inactive: LOX IMVI 5.51 µM | SN12C 29.6 µM | A498 45.6 µM | MCF7 5.96 µM | OVCAR-8 8.32 µM | IGROV-1 17 µM | UACC-62 14.1 µM | NCI/ADR-RES 18.8 µM | HL-60 3.77 µM | HT-29 16.9 µM | UACC-257 44.8 µM | OVCAR-3 14.6 µM | NCI-H522 5.36 µM | UO-31 11.1 µM | U-251 36.1 µM | SF-295 21.1 µM | SK-MEL-28 > 100 µM | SW-620 48.5 µM | SK-MEL-2 13.6 µM

Nc1n[n+]([O-])c2cc([N+](=O)[O-])ccc2[n+]1[O-]
inactive: LOX IMVI 1.38 µM | SN12C 5.14 µM | A498 15.9 µM | MCF7 3.36 µM | OVCAR-8 3.44 µM | IGROV-1 2.87 µM | UACC-62 2.49 µM | NCI/ADR-RES 4.36 µM | HL-60 2.2 µM | HT-29 2.53 µM | UACC-257 13.3 µM | OVCAR-3 1.93 µM | NCI-H522 2.07 µM | UO-31 10.5 µM | U-251 4.61 µM | SF-295 10.4 µM | SK-MEL-28 29 µM | SW-620 2.22 µM | SK-MEL-2 15 µM

COc1ccc(N(C(=O)NCCO)c2ccccc2)cc1
inactive: LOX IMVI > 100 µM | SN12C > 100 µM | A498 > 100 µM | MCF7 > 100 µM | OVCAR-8 > 100 µM | IGROV-1 > 100 µM | UACC-62 > 100 µM | NCI/ADR-RES > 100 µM | HL-60 > 100 µM | HT-29 > 100 µM | UACC-257 > 100 µM | OVCAR-3 > 100 µM | NCI-H522 > 100 µM | UO-31 > 100 µM | U-251 > 100 µM | SF-295 > 100 µM | SK-MEL-28 > 100 µM | SW-620 > 100 µM | SK-MEL-2 > 100 µM

CC(C)(C)C1=CC(O)(c2c3ccccc3c(C3(O)C=C(C(C)(C)C)C(=O)C(C(C)(C)C)=C3)c3ccccc23)C=C(C(C)(C)C)C1=O
inactive: LOX IMVI > 100 µM | SN12C > 100 µM | MCF7 > 100 µM | OVCAR-8 > 100 µM | IGROV-1 > 100 µM | UACC-62 > 100 µM | NCI/ADR-RES > 100 µM | HL-60 > 10 µM | HT-29 > 100 µM | UACC-257 > 100 µM | OVCAR-3 > 100 µM | NCI-H522 > 100 µM | UO-31 > 100 µM | U-251 > 100 µM | SF-295 > 100 µM | SK-MEL-28 > 100 µM | SW-620 > 100 µM | SK-MEL-2 > 100 µM
active: A498 0.116 µM

Oc1cccc2cc(Br)cnc12
inactive: LOX IMVI 4.1 µM | SN12C 14.9 µM | A498 27.5 µM | MCF7 3.18 µM | OVCAR-8 3.45 µM | IGROV-1 5.09 µM | UACC-62 5.96 µM | NCI/ADR-RES 3.68 µM | HT-29 23.1 µM | UACC-257 4.78 µM | OVCAR-3 2.67 µM | NCI-H522 2.49 µM | UO-31 6.98 µM | U-251 8.32 µM | SF-295 6.15 µM | SK-MEL-28 49.2 µM | SW-620 5.28 µM | SK-MEL-2 24.5 µM
active: HL-60 1.05 µM

COC(=O)C1CSC(c2csc(CCN)n2)=N1 (centres undefined)
inactive: LOX IMVI > 100 µM | SN12C > 100 µM | OVCAR-8 > 100 µM | IGROV-1 > 100 µM | UACC-62 > 100 µM | HL-60 > 100 µM | HT-29 > 100 µM | UACC-257 > 100 µM | OVCAR-3 > 100 µM | NCI-H522 > 100 µM | UO-31 > 100 µM | U-251 > 100 µM | SF-295 > 100 µM | SK-MEL-28 > 100 µM | SW-620 > 100 µM | SK-MEL-2 > 100 µM | LXFL 529 > 100 µM

COc1cc(O)c2c(c1)O[C@@H]1OCC[C@H]21
inactive: LOX IMVI > 100 µM | SN12C > 100 µM | A498 > 100 µM | OVCAR-8 > 100 µM | IGROV-1 > 100 µM | UACC-62 > 100 µM | HL-60 > 100 µM | HT-29 > 100 µM | UACC-257 > 100 µM | OVCAR-3 > 100 µM | UO-31 > 100 µM | U-251 > 100 µM | SF-295 > 100 µM | SK-MEL-28 > 100 µM | SW-620 > 100 µM | SK-MEL-2 > 100 µM | LXFL 529 > 100 µM

Reference: ChEMBL document CHEMBL1201862, “PubChem BioAssay data set” (2004)
